In patent US20230113011A1, “METHODS OF TREATING ILLNESSES CAUSED BY CORONAVIRUS, SWINE FLU AND AVIAN FLU” (CMTx Biotech Inc., priority 2020, published 2023):

Details: in vivo

Compound: NC(=O)C1=C(O)C[C@@H]2C[C@@H]3Cc4cccc(O)c4C(=O)C3=C(O)[C@]2(O)C1=O [CMT-3, 6-demethyl-6-deoxy-4-dedimethylaminotetracycline]
- plasma concentrations in humans: about 1.0 μg/ml
